# According to ChEMBL document CHEMBL5030539, “Potent and Selective Inhibitors of the Epidermal Growth Factor Receptor to Overcome C797S-Mediated Resistance” (J Med Chem, 2021):
# Active and inactive are the calls of the source. The rule behind the calls is not given here.
# What was measured:
# [1] = organism: Homo sapiens; assay: Inhibition of EGFR Ex19del/T790M/C797S triple mutant (unknown origin) assessed as enzyme residence time measured by -biacore direct binding assay
# [2] = Plasma protein binding in human plasma assessed as unbound fraction; assay type: ADME, cell-free
# [3] = Aqueous solubility of the compound at pH 7.4; assay type: physicochemical; conditions: buffer
# [4] = Inhibition of EGFR Ex19del/T790M/C797S triple mutant (unknown origin) incubated for 15 min measured by -CisBio HTRF KinEASE TK; set-up: species or system Homo sapiens
# [5] = Lipophilicity, log D of the compound at pH 7.4; assay type: physicochemical; conditions: buffer
# [6] = Inhibition of wild type EFGR expressed in human LoVo cell line assessed as inhibition of EGF-stimulated EGFR phosphorylation potency measured after 2 hrs by HRTF assay; assay type: functional
# [7] = Intrinsic clearance in human liver microsomes; assay type: ADME, Microsome; conditions: read-out: CLH
# [8] = Inhibition of EGFR Ex19del/T790M/C797S triple mutant (unknown origin) expressed in human NCI-H1975 cells assessed as protein phosphorylation measured after 2 hrs by ELISA; assay type: cell-based; conditions: NCI-H1975, 2 h
# [9] = Inhibition of EGFR Exon19Del/C797S double mutant (unknown origin) by biochemical assay; set-up: species or system Homo sapiens
# [10] = Intrinsic permeability of compound across apical to basolateral side in human Caco-2 cells; assay type: ADME, cell-based; conditions: read-out: permeability
# [11] = Inhibition of EFGR Ex19del (unknown origin) expressed in human PC-9 cells assessed as inhibition of EGF-induced phosphorylation measured after 2 hrs by ELISA; assay type: cell-based; conditions: PC-9, 2 h
# [12] = Inhibition of EFGR Ex19del/T790M/C797S triple mutant (unknown origin) expressed in human PC-9-VanR cells assessed as inhibition of EGF-induced phosphorylation measured after 2 hrs by ELISA; assay type: cell-based; conditions: PC-9, 2 h
# [13] = Intrinsic clearance in rat hepatocyte measured per 10^6 cells; assay type: ADME, tissue-based; conditions: hepatocytes
# [14] = target: Epidermal growth factor receptor (Homo sapiens, UniProt P00533); assay: Inhibition of Wild type EGFR (unknown origin)
# Epidermal growth factor receptor (Homo sapiens, UniProt P00533), sequence (P00533 whole entry): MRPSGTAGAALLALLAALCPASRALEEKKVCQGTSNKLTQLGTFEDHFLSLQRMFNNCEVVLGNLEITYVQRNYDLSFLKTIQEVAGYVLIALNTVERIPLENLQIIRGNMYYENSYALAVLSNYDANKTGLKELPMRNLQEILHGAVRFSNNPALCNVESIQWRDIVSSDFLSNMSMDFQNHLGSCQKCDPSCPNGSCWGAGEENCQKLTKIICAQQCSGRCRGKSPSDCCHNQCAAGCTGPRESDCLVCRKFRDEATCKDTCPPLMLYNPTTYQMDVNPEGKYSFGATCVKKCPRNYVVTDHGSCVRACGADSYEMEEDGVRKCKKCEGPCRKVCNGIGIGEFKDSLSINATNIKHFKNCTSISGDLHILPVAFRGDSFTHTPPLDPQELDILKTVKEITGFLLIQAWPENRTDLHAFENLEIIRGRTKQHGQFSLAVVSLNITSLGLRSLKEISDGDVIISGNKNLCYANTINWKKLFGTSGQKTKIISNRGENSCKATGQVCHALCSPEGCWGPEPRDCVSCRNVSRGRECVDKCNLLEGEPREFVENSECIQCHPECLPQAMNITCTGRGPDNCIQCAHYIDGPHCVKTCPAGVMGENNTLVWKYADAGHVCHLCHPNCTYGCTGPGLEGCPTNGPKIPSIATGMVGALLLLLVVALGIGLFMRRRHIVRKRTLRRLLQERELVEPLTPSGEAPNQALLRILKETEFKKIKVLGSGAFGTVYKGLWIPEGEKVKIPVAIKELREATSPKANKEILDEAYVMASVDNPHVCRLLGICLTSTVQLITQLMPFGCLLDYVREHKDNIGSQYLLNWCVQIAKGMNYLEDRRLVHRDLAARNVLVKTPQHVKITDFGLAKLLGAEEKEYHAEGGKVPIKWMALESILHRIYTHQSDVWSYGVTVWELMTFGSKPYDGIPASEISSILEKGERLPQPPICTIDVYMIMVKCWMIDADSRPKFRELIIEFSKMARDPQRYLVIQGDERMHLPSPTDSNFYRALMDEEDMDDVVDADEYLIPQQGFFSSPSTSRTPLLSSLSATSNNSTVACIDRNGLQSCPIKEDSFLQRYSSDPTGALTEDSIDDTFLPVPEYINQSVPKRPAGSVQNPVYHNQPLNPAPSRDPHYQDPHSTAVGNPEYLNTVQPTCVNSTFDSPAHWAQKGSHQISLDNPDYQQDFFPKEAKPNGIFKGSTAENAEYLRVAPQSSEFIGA
# [15] = Dissociation constant, pKa of compound; assay type: physicochemical
# [16] = tested on: NCI-H1975; assay: Antitumour activity against human NCI-H1975 cells harboring EGFR L858R/T790M double mutant xenografted in NSG mouse model assessed as tumour growth inhibition at 50 mg/kg, sc bid for 14 days relative to control; assay type: functional; conditions: 336 h, time 14 day, read-out: TGI
# [17] = tested on: PC-9; assay: In vivo inhibition of EGFR in human PC-9-VanR cells harboring EGFR Ex19del/T790M/C797S triple mutant xenografted in NSG mouse model assessed as inhibition of EGFR phosphorylation in tumor at 50 mg/kg, sc bid for 21 days by immunoblot analysis; assay type: functional, organism-based; conditions: time 21.0 day
# [18] = tested on: PC-9; assay: In vivo inhibition of EGFR in human PC-9-VanR cells harboring EGFR Ex19del/T790M/C797S triple mutant xenografted in NSG mouse model assessed as inhibition of Akt phosphorylation in tumor at 50 mg/kg, sc bid for 21 days by immunoblot analysis; assay type: functional, organism-based; conditions: time 21.0 day
# [19] = tested on: PC-9; assay: In vivo inhibition of EGFR in human PC-9-VanR cells harboring EGFR Ex19del/T790M/C797S triple mutant xenografted in NSG mouse model assessed as inhibition of ERK phosphorylation in tumor at 50 mg/kg, sc bid for 21 days by immunoblot analysis; assay type: functional, organism-based; conditions: time 21.0 day
# [20] = tested on: PC-9; assay: In vivo inhibition of EGFR in human PC-9-VanR cells harboring EGFR Ex19del/T790M/C797S triple mutant xenografted in NSG mouse model assessed as inhibition of S6 phosphorylation in tumor at 50 mg/kg, sc bid for 21 days by immunoblot analysis; assay type: functional, organism-based; conditions: time 21.0 day
# [21] = target: Epidermal growth factor receptor (Homo sapiens, UniProt P00533, L858R/T790M)
# Epidermal growth factor receptor (Homo sapiens, UniProt P00533, L858R/T790M), sequence (P00533 25-1210 T790M/L858R limits assumed): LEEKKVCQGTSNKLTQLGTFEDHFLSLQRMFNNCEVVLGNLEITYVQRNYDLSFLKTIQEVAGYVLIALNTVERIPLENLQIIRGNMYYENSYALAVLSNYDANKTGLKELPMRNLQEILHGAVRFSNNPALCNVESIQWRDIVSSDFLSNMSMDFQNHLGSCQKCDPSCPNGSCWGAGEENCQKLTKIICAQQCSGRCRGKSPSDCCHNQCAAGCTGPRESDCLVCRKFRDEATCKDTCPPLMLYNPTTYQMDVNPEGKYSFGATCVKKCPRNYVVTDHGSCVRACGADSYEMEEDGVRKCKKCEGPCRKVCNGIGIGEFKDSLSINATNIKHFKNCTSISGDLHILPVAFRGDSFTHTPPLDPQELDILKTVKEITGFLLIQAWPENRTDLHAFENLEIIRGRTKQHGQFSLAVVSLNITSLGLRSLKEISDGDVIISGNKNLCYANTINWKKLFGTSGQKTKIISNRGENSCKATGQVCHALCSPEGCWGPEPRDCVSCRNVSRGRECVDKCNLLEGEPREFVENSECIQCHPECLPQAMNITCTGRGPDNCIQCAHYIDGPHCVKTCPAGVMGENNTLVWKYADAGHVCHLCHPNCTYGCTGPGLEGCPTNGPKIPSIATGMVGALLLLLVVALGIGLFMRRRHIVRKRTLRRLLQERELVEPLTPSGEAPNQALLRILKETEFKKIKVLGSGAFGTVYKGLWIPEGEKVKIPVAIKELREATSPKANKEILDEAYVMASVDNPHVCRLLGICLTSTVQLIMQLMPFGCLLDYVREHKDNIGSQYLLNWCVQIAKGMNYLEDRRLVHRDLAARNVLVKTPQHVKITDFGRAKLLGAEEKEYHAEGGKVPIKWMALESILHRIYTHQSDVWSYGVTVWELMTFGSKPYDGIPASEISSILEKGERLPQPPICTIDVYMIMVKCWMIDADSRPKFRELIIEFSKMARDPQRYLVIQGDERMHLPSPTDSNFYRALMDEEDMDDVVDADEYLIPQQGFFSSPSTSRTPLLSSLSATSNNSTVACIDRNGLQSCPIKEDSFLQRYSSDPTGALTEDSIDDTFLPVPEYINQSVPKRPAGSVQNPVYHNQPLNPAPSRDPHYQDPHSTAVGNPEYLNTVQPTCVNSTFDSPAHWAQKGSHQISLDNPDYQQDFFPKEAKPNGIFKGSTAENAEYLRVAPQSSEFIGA
# [22] = Toxicity in mouse NSG assessed as change in body weight at 50 mg/kg, sc bid for 14 to 21 days; assay type: organism-based; conditions: in vivo, time 14-21 day
# [23] = tested on: PC-9; assay: Antitumour activity against human PC-9-VanR cells harboring EGFR Ex19del/T790M/C797S triple mutant xenografted in NSG mouse model assessed as tumour growth inhibition at 50 mg/kg, sc bid for 21 days; assay type: functional; conditions: PC-9, sc, 504 h, time 21 day, read-out: TGI
TIME [1],fraction unbound ([2]; read-out: Fu),solubility [3],IC50 [4],logD [5],IC50 [6],microsomal CLint [7],IC50 [8],Papp A→B at 10 µM [10],CLH [13],IC50 [14],Compound,further results
2.2 h,0.1,> 1000 µM,0.3 nM,2.5,726 nM,28 µL/min/mg,498 nM,–,–,–,COc1cc(N2CCC(N3CCN(C)CC3)CC2)c(-c2cn[nH]c2)cc1Nc1ncc(Cl)c(Nc2ccccc2P(C)(C)=O)n1,–
0.333 h,–,> 1190 µM,7 nM,2.3,2030 nM,3.1 µL/min/mg,459 nM,4.7 ×10⁻⁶ cm/s,–,–,COc1cc(N2CCC(N3CCN(C)CC3)CC2)ccc1Nc1ncc(Cl)c(Nc2ccccc2P(C)(C)=O)n1 [BRIGATINIB],IC50 [9]: 132 nM; fraction unbound [2]: 0.155; IC50 [11]: 357 nM; IC50 [12]: 2680 nM
2.52 h,0.228,> 1000 µM,0.32 nM,2.7,140 nM,21 µL/min/mg,91 nM,< 0.62 ×10⁻⁶ cm/s,< 1 uL/min/10^6 cells,0.92 nM,COc1cc(N2CCC(N3CCN(C)CC3)CC2)c(-c2cnn(C)c2)cc1Nc1ncc(Cl)c(Nc2ccccc2P(C)(C)=O)n1,–
2.3 h,0.19,> 1000 µM,0.5 nM,1.8,373 nM,23 µL/min/mg,2010 nM,0.24 ×10⁻⁶ cm/s,< 1 uL/min/10^6 cells,0.9 nM,COc1cc(N2CCC(N(C)C)CC2)c(-c2cn[nH]c2)cc1Nc1ncc(Cl)c(Nc2ccccc2P(C)(C)=O)n1,–
1.08 h,0.272,> 1000 µM,0.19 nM,1.9,101 nM,31 µL/min/mg,–,< 0.24 ×10⁻⁶ cm/s,< 1 uL/min/10^6 cells,1.7 nM,COc1cc(N2CCC(N(C)C)CC2)c(-c2cnn(C)c2)cc1Nc1ncc(Cl)c(Nc2ccccc2P(C)(C)=O)n1,pKa [15]: 9.4
2.65 h,0.243,> 1000 µM,0.23 nM,2.4,79 nM,24 µL/min/mg,241 nM,2.6 ×10⁻⁶ cm/s,< 1 uL/min/10^6 cells,3.3 nM,COc1cc(N2CCN(C)CC2)c(-c2cnn(C)c2)cc1Nc1ncc(Cl)c(Nc2ccccc2P(C)(C)=O)n1,pKa [15]: 7.6
3.97 h,0.009,< 3 µM,–,3.4,2140 nM,28 µL/min/mg,1090 nM,18 ×10⁻⁶ cm/s,–,–,COc1cc(N2CCOCC2)c(-c2cn[nH]c2)cc1Nc1ncc(Cl)c(Nc2ccccc2P(C)(C)=O)n1,–
1.83 h,0.041,–,0.2 nM,4,–,71 µL/min/mg,139 nM,78 ×10⁻⁶ cm/s,67 uL/min/10^6 cells,2.4 nM,CCP(=O)(CC)c1ccccc1Nc1nc(Nc2cc(-c3cnn(C)c3)c(N3CCOCC3)cc2OC)ncc1Cl,–
–,–,–,–,–,–,–,–,–,–,–,C=CC(=O)Nc1cc(Nc2nccc(-c3cn(C)c4ccccc34)n2)c(OC)cc1N(C)CCN(C)C [OSIMERTINIB],IC50 [9]: 44 nM
1.37 h,0.07,8.7 µM,0.2 nM,3,1180 nM,49 µL/min/mg,122 nM,61 ×10⁻⁶ cm/s,16 uL/min/10^6 cells,4.4 nM,COc1cc(N2CCOCC2)c(-c2cnn(C)c2)cc1Nc1ncc(Cl)c(Nc2ccccc2P(C)(C)=O)n1,inhibition in vivo at 50 mg/kg [16]: 87%; Activity [17]: Active; IC50 [11]: 52 nM; Activity [18]: Active; Activity [19]: Active; Activity [20]: Active; IC50 [21]: 32 nM; Activity [22]: Toxic; IC50 [12]: 739 nM; inhibition in vivo at 50 mg/kg [23]: 52%
